Calls of active or inactive are those of the source. No rule for the calls is given here.

For 23 molecules, IC50 and IC90 results are on record in PubChem BioAssay AID434987 (Southern Research Specialized Biocontainment Screening …, 2010).

The subject of the assay is M. tuberculosis H37Rv growth inhibition with meropenem. Kind of assay: dose response, H37Rv, with and without meropenem (AID 434987).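 Also: growth over 7 days at 37 °C before Alamar Blue read on day 9.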
Setting [1] is: M. tuberculosis H37Rv growth inhibition, measured here: IC50 without meropenem.
Where [2] appears, read: M. tuberculosis H37Rv growth inhibition, measured here: IC90 without meropenem.
[3] abbreviates: measured here: IC90 with meropenem.

The term IC50 denotes the concentration that gives 50% inhibition. The IC90 is the concentration at which the effect reaches the 90% level. A high value points to weaker potency. As for `OC(COC(c1ccccc1)c1ccccc1)CN1CCN(c2cccc(Cl)c2)CC1` (configuration not stated), the IC50 was 44.6 µM (inactive). Further, the IC50 under setting [1] amounted to 47.4 µM. Moreover, under setting [2], the IC90 was > 100 µM. Under setting [3], the IC90 is > 100 µM.

As to `CC(=O)Nc1scc(C)c1-c1nc2ccccc2s1`, the IC50 is > 100 µM (inactive). For the same molecule, the IC50 under setting [1] was > 100 µM. Under setting [2], the IC90 is > 100 µM. For the same molecule, the IC90 under setting [3] was > 100 µM.

For `CN(NC(=O)c1c(Cl)cccc1Cl)c1cccc(Cl)n1`, the IC50 was 7.34 µM. Also, the IC50 under setting [1] is 62.3 µM. The IC90 under setting [2] was > 100 µM. The IC90 under setting [3] is > 100 µM.

For the molecule `CCOC(=O)N1CCN(CC(=O)Nc2nnc(C(F)(F)F)s2)CC1`, the IC50 is 27.8 µM. For the same molecule, under setting [1], the IC50 is > 100 µM. Also, the IC90 under setting [2] was > 100 µM. In addition, the IC90 under setting [3] is 50.1 µM.

For `O=C(COC(=O)C1=COCCO1)Nc1ccc2c(c1)OCO2`, the IC50 is 3.86 µM. In addition, the IC50 under setting [1] came to 50 µM. Further, under setting [2], the IC90 was > 100 µM. Besides, the IC90 under setting [3] was > 100 µM.

As to `CCc1ccc(N2C(=O)c3sc4nnc(-c5ccccc5)c(=O)n4c3C2=O)cc1`, the IC50 is > 100 µM (inactive). Further, the IC50 under setting [1] was > 100 µM. In addition, the IC90 under setting [2] was > 100 µM. The IC90 under setting [3] was > 100 µM.

Regarding `Cc1c(C(=O)NC(=S)Nc2ccccc2N2CCCC2)cccc1[N+](=O)[O-]`, the IC50 is 63.5 µM (inactive). For the same molecule, the IC50 under setting [1] was 82.6 µM. Moreover, the concentration for an effect of 90% (IC90) under setting [2] is > 100 µM. The IC90 under setting [3] is > 100 µM.

For the molecule `Cc1ccc(-c2nc3[nH]c(=O)cc(NC(=O)C(C)C)n3n2)cc1`, the IC50 was 7.36 µM. The IC50 under setting [1] is > 100 µM. For the same molecule, the IC90 under setting [2] was > 100 µM. Under setting [3], the IC90 is > 12.5 µM.

On to `C[C@]12CC[C@@H]3c4ccc(OS(=O)(=O)O)cc4CC[C@H]3[C@@H]1CCC2=O`, for which the IC50 was > 100 µM (inactive). Also, the IC50 under setting [1] was > 100 µM. Moreover, under setting [2], the IC90 is > 100 µM. The IC90 under setting [3] was > 100 µM.

Regarding `c1ccc(-c2cc3ccccc3[nH]2)cc1`, the IC50 was > 100 µM (inactive). Moreover, under setting [1], the IC50 is > 100 µM. Besides, the IC90 under setting [2] is > 100 µM. Also, the IC90 under setting [3] is > 100 µM.

For `CCOc1ccc(N(CC(=O)NCCSCc2ccccc2Cl)S(C)(=O)=O)cc1`, the IC50 was > 100 µM (inactive). Besides, under setting [1], the IC50 is > 100 µM. The IC90 under setting [2] is > 100 µM. For the same molecule, the IC90 under setting [3] was > 100 µM.

Consider `COC(=O)Cn1c2ccccc2c2nc(C)sc21`, for which the IC50 was 18.9 µM (inactive). This molecule showed an IC50 under setting [1] of 25.4 µM. The IC90 under setting [2] came out at 44.4 µM. The same molecule displayed an IC90 under setting [3] of 27.8 µM.

With `CCNCC(O)c1cccc(O)c1` (configuration not stated), the IC50 was > 100 µM (inactive). Further, the IC50 under setting [1] is > 100 µM. For the same molecule, under setting [2], the IC90 was > 100 µM. The IC90 under setting [3] is > 100 µM.

`S=C(Nc1ccccc1)Nc1ccc(Cl)cn1`: the IC50 is 4.68 µM. The molecule also returned an IC50 under setting [1] of 90.6 µM. Also, under setting [2], the IC90 was > 100 µM. Moreover, the IC90 under setting [3] was > 100 µM.

As to `O=C(CCS(=O)(=O)c1ccccc1)N(CCCN1CCOCC1)c1nc2c(F)cccc2s1`, the IC50 is 11.3 µM. Further, the IC50 under setting [1] is > 100 µM. Besides, under setting [2], the IC90 was > 100 µM. For the same molecule, the IC90 under setting [3] is > 25 µM.

Consider `COc1ccccc1N1CCN(S(=O)(=O)c2ccc3nc(-c4ccccc4)[nH]c3c2)CC1`, for which the IC50 was > 100 µM (inactive). In addition, the IC50 under setting [1] was > 100 µM. In addition, under setting [2], the IC90 was > 100 µM. Further, the IC90 under setting [3] was > 100 µM.

In the case of `Cc1ccc(/C=N\NC(=O)c2csnn2)cc1`, the IC50 was 66.4 µM (inactive). In addition, the IC50 under setting [1] is > 100 µM. Besides, the IC90 under setting [2] was > 100 µM. For the same molecule, under setting [3], the IC90 is > 100 µM.

As to `O=C1N/C(=N\N=C\c2ccc3ncccc3c2)SC1Cc1ccc(SC(F)F)cc1` (configuration not stated), the IC50 is > 100 µM (inactive). Under setting [1], the IC50 was > 100 µM. Under setting [2], the IC90 is > 100 µM. Besides, the IC90 under setting [3] is > 100 µM.

Regarding `CC12CCC(C/C1=N\N=C1\NC(=O)/C(=C\c3cccc(Br)c3)S1)C2(C)C` (configuration not stated), the IC50 is 9.74 µM. The same molecule yielded a half-maximal inhibitory concentration (IC50) under setting [1] of 26.6 µM. This molecule also came in with an IC90 under setting [2] of 37.3 µM. Under setting [3], this molecule had an IC90 of 37.7 µM.

On to `CS(=O)(=O)N(Cc1ccc(Cl)cc1)c1ccc(C(=O)NCCC2=CCCCC2)cc1`, for which the IC50 is > 100 µM (inactive). In addition, the IC50 under setting [1] is > 100 µM. Also, the IC90 under setting [2] is > 100 µM. For the same molecule, the IC90 under setting [3] was > 100 µM.

`COc1ccc(Br)cc1/C=N/NC(=O)CNC(=O)/C=C/c1ccccc1`: the IC50 was > 100 µM (inactive). Moreover, the IC50 under setting [1] was > 100 µM. In addition, the IC90 under setting [2] is > 100 µM. The IC90 under setting [3] was > 100 µM.

Consider `Cc1ccc(SCc2c(C#N)c3ccccc3n2C)cc1`, for which the IC50 was > 100 µM (inactive). Moreover, the IC50 under setting [1] was > 100 µM. Under setting [2], the IC90 is > 100 µM. Further, the IC90 under setting [3] is > 100 µM.

As to `O=C(N[C@@H](Cc1ccccc1)C(=O)CCl)OCc1ccccc1`, the IC50 was 8.88 µM (inactive). The IC50 under setting [1] came out at 17.3 µM. The molecule further gave an IC90 under setting [2] of 41.9 µM. Besides, the IC90 under setting [3] was 46.9 µM.
